The values below come from US20260159519A1, “IMIDAZOPYRIDAZINE SUBSTITUTED BENZENE RING DERIVATIVE, PREPARATION METHOD, PHARMACEUTICAL COMPOSITION AND USE” (SHANGHAI SIMR BIOTECHNOLOGY CO., LTD., priority 2022, published 2026).

Each structure is given as a SMILES string. Read-outs that look alike come from different tables or passages of the source.

For test [1], the target named is T1, human α2-GABAA receptor (BZD site, membrane protein of HEK293 cells) (Homo sapiens, UniProt P18507+P47869).
T1 construct: expressed in transfected cells
The experiment in a line: Radioligand competitive binding assay (3H-flunitrazepam) at the BZD site of the α2-GABAA receptor. The text has this: (§1) α subunit, β subunit, and γ subunit are essential for the formation of a complete and functional GABAA receptor. In this example of the present disclosure, HEK293 cells stably expressing the human α1-GABAA receptor (α1-GABAAR) and α2-GABAA receptor (α2-GABAAR) were constructed and separately selected using the lipofection method (Felgner, P. L., et al. Proceedings of the National Academy of Sciences, 1987, 84: 7413-7417). The α1-GABAAR-HEK293 cell model simultaneously expressed the α1 subunit (for protein sequence, see GenBank accession No.: NM_000806.5), the […] (for protein sequence, see GenBank accession No.: NM_000814.5), and the […] (for protein sequence, see GenBank accession No.: NM_000816.3). The α2-GABAAR-HEK293 cell model simultaneously expressed the α2 subunit (for protein sequence, see GenBank accession No.: NM_000807.4), the β3 subunit (for protein sequence, see GenBank accession No.: NM_000814.5), and the γ2 subunit (for protein sequence, see GenBank accession No.: NM_000816.3).
(§2) The above cell lines were subcultured. The α2-GABAAR-HEK293 cells were expanded for testing the affinity of compounds to the benzodiazepine (BZD) site of the GABAA receptor. During the passage process, some of the α1-GABAAR-HEK293 cells and α2-GABAAR-HEK293 cells were suspended and plated on a slide pre-treated with Poly-D-Lysine for electrophysiological testing (method referenced from patent CN107344936A, paragraph 0586).
The affinity of the compounds for the α2-GABAA receptor was determined by competing for the binding of ^3H-flunitrazepam (isotope ^3H-labelled flunitrazepam) to the BZD site on the membrane protein of HEK293 cells stably expressing the human α2-GABAAR.
Membrane preparation: Cells were suspended in 50 mM Tris-HCl buffer (pH=7.4), homogenized 10 times for 20 seconds with a homogenizer on ice, and centrifuged at 1000 g for 10 minutes at 4° C. The supernatant was taken, and the above steps were repeated. The supernatant was centrifuged at 4° C. (33800 g; Thermo, rotor: A27-8×50) for 60 minutes. The precipitate was resuspended in Tris buffer (50 mM Tris-HCl, 10 mM MgCl2, 0.5 mM EDTA, and 10% glycerol). The protein content was determined (BCA (bicinchoninic acid) protein quantification assay based on copper ion reduction, with a BCA kit purchased from Pierce (Annoron (Beijing) Biotechnology Co., Ltd.)), and 1 mL aliquots were prepared and stored at −80° C.
Radioligand competitive binding assay: This assay was performed in a 200 μL system (96-well plate) containing 100 μL of cell membrane. The concentration of ^3H-flunitrazepam was 1 nM, and the concentrations of the test compounds were in the range of […]. Flumazenil was used as a control. 1 μL of 2 mM flumazenil (final […]) was added to each low signal control (low control, LC) well, and 1 μL of dimethyl sulfoxide was added to each high signal control (high control, HC) well. The final concentration of target membrane protein was […]. All sample stock solutions of test compounds were 10 mM dimethyl sulfoxide solutions. All the samples were diluted to a concentration of 0.2 mM with dimethyl sulfoxide, and then subjected to a 4-fold serial dilution for a total of 8 working concentration gradients. The 96-well plate was sealed with a sealing membrane and then incubated on a shaker at room temperature for 1 hour. Meanwhile, a GF/C filter plate was soaked in plate soaking buffer (0.3% PEI (polyethyleneimine, purchased from Sigma-Aldrich, model: P314), stored at 4° C.) for at least 0.5 hours. After the binding incubation was completed, the cells were harvested onto the GF/C filter plate using a cell harvester and washed four times with plate washing buffer (50 mM Tris-HCl, pH 7.4, stored at 4° C.). After drying in an oven at 50° C. for 1 hour, the dried GF/C filter plate was bottom-sealed. The residual radioactivity on the filter membrane was detected by liquid scintillation counting.

The target of test [2] is T2, human α1-GABAA receptor (α1-GABAAR-HEK293 cells) (Homo sapiens, UniProt P14867+P18507).
T2 construct: expressed in transfected cells
Nature of the test: Whole-cell patch-clamp electrophysiology, positive allosteric modulatory activity on α1-GABAA receptor. The conditions noted are these: read-out: α1-GABAA positive allosteric modulatory activity. Format: cell-based.
Source text: as §1, §2
(§3) The positive regulatory activity of the test drugs on the α1-GABAA receptor and the α2-GABAA receptor was detected by the electrophysiological method. The specific method was as follows:
(§4) Compound concentration setting: The final concentration of the compounds used for screening was 100 nM. For cell lines expressing the α1-GABAA receptor, the concentration of GABA was 0.05 to 0.07 μM (approximately EC2-4). For cell lines expressing the α2-GABAA receptor, the concentration of GABA was 0.10 to 0.11 μM (approximately EC7-8). Electrophysiological testing was performed using the whole-cell patch-clamp technique, which can refer to the method reported in the literature (Nickolls, S. A., et al. British Journal of Pharmacology, 2018, 175: 708-725). The composition of the extracellular solution (ECS) for electrophysiology was as follows: 150 mM NaCl, 5 mM KCl, 2.5 mM CaCl2, 1 mM MgCl2, 10 mM HEPES, and 10 mM glucose (pH 7.4). The formulation of the intracellular solution (ICS) for electrophysiology was as follows: 140 mM CsCl, 11 mM EGTA, 10 mM HEPES, 2 mM CaCl2, 1 mM MgCl2, 4 mM MgATP, and 2 mM TEA (pH 7.3). GABA (γ-aminobutyric acid) powder was prepared into a mother liquor with pure water, which was then diluted in ECS. The compound was first prepared into a 4 mM mother liquor with dimethyl sulfoxide, which was then gradually diluted in the corresponding concentration of GABA-ECS. The solutions were freshly prepared prior to electrophysiological testing.
(§5) Electrophysiological signal acquisition was performed using an EPC 10 amplifier and PatchMaster software (HEKA) or an Axon 700B amplifier and Clampex software (AXON). The recording electrode was made through a drawing process using borosilicate glass, with an electrode resistance of 4 to 6 MΩ. Extracellular administration was performed using the ALA-VC-8PG™ system. A single, independently growing cell was selected. After the glass electrode formed a good seal with the cell, the membrane was ruptured to form the whole-cell configuration. The cell membrane potential was clamped at −60 mV and recorded in Gap-free mode. During the test, the extracellular solution was first applied extracellularly for approximately 20 seconds. After the baseline (Iprebaseline) stabilized, the extracellular solution was switched to GABA-ECS. At this point, the current induced by GABA (Igaba) could be detected. After approximately 10 to 20 seconds, when the current stabilized, the extracellular solution was switched to a mixture of the compound and GABA-ECS. […]
(The patch-clamp technique gives a direct electrical read-out from membranes.)

Test [3] deals with T3, human α2-GABAA receptor (α2-GABAAR-HEK293 cells) (Homo sapiens, UniProt P18507+P47869).
T3 construct: expressed in transfected cells
The experiment in a line: Whole-cell patch-clamp electrophysiology, positive allosteric modulatory activity on α2-GABAA receptor. The conditions noted are these: read-out: α2-GABAA positive allosteric modulatory activity. The test is classed as cell-based.
Source text: as §1, §2, §3, §4, §5

Setting [4] is: competition with 1 nM 3H-flunitrazepam, Ki calculated from IC50, read-out: α2 Ki.

With `CCn1cnc2c(-c3ccc(F)c(-c4cc5cn([C@H]6CCN(C)C[C@@H]6F)nc5cc4OC)c3)cnnc21` (racemic) [Example 63, 7-Ethyl-4-(4-fluoro-3-(2-((3S,4S)-3-fluoro-1-methylpiperidin-4-yl)-6-methoxy-2H-indazol-5-yl)phenyl)-7H-imidazo[4,5-c]pyridazine], the Ki in test [1] (setting [4]) is 3.51 nM. Further, the results for the activation at 0.1 µM in test [2] and in test [3] were 37% and 81%, respectively.

With `CC[C@H]1Oc2cc(-c3cc(-c4cnnc5c4ncn5CC)ccc3F)c(OC)cc2N(C)C1=O` (single isomer, unassigned) [Example 8], the Ki in test [1] (setting [4]) was 4.76 nM. The activation at 0.1 µM in test [2] is 79%; in test [3], 130%.

`CCn1cnc2c(-c3ccc(F)c(-c4cc5c(cc4OC)ncn5C4COC4)c3)cnnc21` (single isomer, unassigned) [Example 135, 7-Ethyl-4-(4-fluoro-3-(5-methoxy-1-(oxetan-3-yl)-1H-benzo[d]imidazol-6-yl)phenyl)-7H-imidazo[4,5-c]pyridazine]: in test [1] (setting [4]), the Ki was 28.2 nM. In addition, the activation at 0.1 µM in test [2] worked out at 68%; in test [3] it was 142%.

For the molecule `CCn1cnc2c(-c3ccc(F)c(-c4cc5c(cc4OC)N(C)C(=O)C(COC)O5)c3)cnnc21` (single isomer, unassigned) [Example 162], the Ki in test [1] (setting [4]) was 14.5 nM. Moreover, the activation at 0.1 µM in test [2] was determined as 42%; in test [3] it was 114%.

With `CCn1cnc2c(-c3ccc(F)c(-c4cc5cc(C(C)=O)c(=O)n(C)c5cc4OC)c3)cnnc21` [Example 1, 3-Acetyl-6-(5-(7-ethyl-7H-imidazo[4,5-c]pyridazin-4-yl)-2-fluorophenyl)-7-methoxy-1-methylquinolin-2(1H)-one], the Ki in test [1] (setting [4]) is 6 nM. Besides, the figures for the activation at 0.1 µM in test [2] and in test [3] were 13% and 151%, respectively.

`CCn1cnc2c(-c3ccc(F)c(-c4cc5c(cc4OC)-c4c(cnn4C)CO5)c3)cnnc21` [Example 10, 7-(5-(7-Ethyl-7H-imidazo[4,5-c]pyridazin-4-yl)-2-fluorophenyl)-8-methoxy-1-methyl-1,4-dihydrochromeno[4,3-c]pyrazole]: in test [1] (setting [4]), the Ki is 26.9 nM. Besides, the activation at 0.1 µM in test [2] is 1%; in test [3], 98%.

For `CCn1cnc2c(-c3ccc(F)c(-c4ccc5c(nnn5CC)c4COC)c3)cnnc21` [Example 11, 7-Ethyl-4-(3-(1-ethyl-4-(methoxymethyl)-1H-benzo[d][1,2,3]triazol-5-yl)-4-fluorophenyl)-7H-imidazo[4,5-c]pyridazine], in test [1] (setting [4]), the Ki was 16.4 nM. Besides, the activation at 0.1 µM amounted to 75% in test [2] and 97% in test [3].

With `CCn1cnc2c(-c3ccc(F)c(-c4ccc5c(nnn5C)c4COC)c3)cnnc21` [Example 16, 7-Ethyl-4-(4-fluoro-3-(4-(methoxymethyl)-1-methyl-1H-benzo[d][1,2,3]triazol-5-yl)phenyl)-7H-imidazo[4,5-c]pyridazine], in test [1] (setting [4]), the Ki is 11.6 nM. Also, the activation at 0.1 µM came out at 38% in test [2] and 104% in test [3].

For the molecule `CCn1cnc2c(-c3ccc(F)c(-c4cc5c(cc4OC)N(CCN4CCCC4)C(=O)CO5)c3)cnnc21` [Example 17, 7-(5-(7-Ethyl-7H-imidazo[4,5-c]pyridazin-4-yl)-2-fluorophenyl)-6-methoxy-4-(2-(pyrrolidin-1-yl)ethyl)-2H-benzo[b][1,4]oxazin-3(4H)-one], affinity in test [1] was put at a Ki of 14.4 nM. In addition, the values for the activation at 0.1 µM in test [2] and in test [3] were 47% and 125%, respectively.

For `CCn1cnc2c(-c3ccc(F)c(-c4cc5c(cc4OC)N(CCN4CCOCC4)C(=O)CO5)c3)cnnc21` [Example 18, 7-(5-(7-Ethyl-7H-imidazo[4,5-c]pyridazin-4-yl)-2-fluorophenyl)-6-methoxy-4-(2-morpholinoethyl)-2H-benzo[b][1,4]oxazin-3(4H)-one], the inhibition constant Ki in test [1] (read-out: α2 Ki, competition with 1 nM 3H-flunitrazepam, Ki calculated from IC50) was 13.9 nM. In addition, the activation at 0.1 µM in test [2] is 30%; in test [3] it was 106%.

`CCn1cnc2c(-c3ccc(F)c(-c4cc5c(cc4OC)N(CCN(C)C)C(=O)CO5)c3)cnnc21` [Example 22, 4-(2-(Dimethylamino)ethyl)-7-(5-(7-ethyl-7H-imidazo[4,5-c]pyridazin-4-yl)-2-fluorophenyl)-6-methoxy-2H-benzo[b][1,4]oxazin-3(4H)-one] registered a Ki in test [1] of 10 nM. For the same molecule, the activation at 0.1 µM turned out to be 53% in test [2] and 115% in test [3].

Take `CCn1cnc2c(-c3ccc(F)c(-c4cc5c(cc4OC)N(C)C(=O)C(C)O5)c3)cnnc21` (stereo not drawn) [Example 26, 7-(5-(7-Ethyl-7H-imidazo[4,5-c]pyridazin-4-yl)-2-fluorophenyl)-6-methoxy-2,4-dimethyl-2H-benzo[b][1,4]oxazin-3(4H)-one]: in test [1] (setting [4]), the Ki is 8.95 nM. Also, the activation at 0.1 µM in test [2] was 48%; in test [3], 120%.

In the case of `CCn1cnc2c(-c3ccc(F)c(-c4cc5oc(=O)n(CCOC)c5cc4OC)c3)cnnc21` [Example 28, 6-(5-(7-Ethyl-7H-imidazo[4,5-c]pyridazin-4-yl)-2-fluorophenyl)-5-methoxy-3-(2-methoxyethyl)benzo[d]oxazol-2(3H)-one], in test [1] (setting [4]), the Ki was 8.56 nM. For the same molecule, the activation at 0.1 µM in test [2] stood at 38%; in test [3] it was 115%.

For orientation: Ki means the equilibrium dissociation constant of an inhibitor or competing ligand from its target.
